Assay results published in patent US9266832B2, “Compounds for the treatment of neurodegenerative diseases” (Katholieke Universiteit Levun, priority 2010, dated 2016).
pEC50: −log10 of the molar value.

Test system: M17-TAU P301L cells
Experiment: Tau-induced toxicity experiment: LDH leakage of retinoic acid incubated M17-TAU P301L cells
Type: cell-based
Settings: Homo sapiens, Neuroblastoma cell, 168 h; reduction of LDH activity of retinoic acid incubated M17-TAU P301L neuroblastoma cells, 7 days
From the text: A TAU expression plasmid was constructed by sub-cloning the cDNA of human TAU-P301L (encoding for TAU with proline 301 substituted by a leucine residue) into mammalian expression vector pcDNA3.1 resulting in plasmid pcDNA3.1-TAU P301L. Plasmids pcDNA3.1 and pcDNA3.1-TAU P301L were transfected to human neuroblastoma cells ([…]; ATCC No. CRL-2267) and independent clonal lines with the plasmids stably integrated into the genome were selected. […] Expression of the TAU P301L genes in the cell lines was confirmed by Western analysis.
In degenerated or dead cells lactate dehydrogenase (LDH) is leaked out of the cells into the extracellular environment due to a loss of plasma-membrane integrity. This principle was used to determine cytotoxicity by quantifying the level of leaked LDH into the growth medium.
The detailed method for determining TAU cytotoxicity was as follows: From appropriate precultures of M17-3.1 and M17-TAU(P301L) cells were seeded at 2500 cells/cm2 in Optimem Reduced Serum without phenol red (Gibco, Cat. 31985-047) supplemented with 1% fetal calf serum, 1 mM sodium pyruvate, 1× non-essential amino acids, 500 μg/ml G418 0.5× antibiotic/antimycotic. After 3 h of incubation at 37° C./5% CO2 1 volume of Optimem Reduced Serum (same as described above; except without fetal calf serum) supplemented with 2.5 μM retinoic acid (RA) was added. The cells were further incubated for 7 days. Subsequently, LDH activity was determined using Promega Cytotox 96 Non-Radioactive cytotoxicity assay, (Cat. G1780) according the supplier's instructions.
The M17-TAU P301L cell line made it possible to assess the ability of novel compounds to counteract TAU cytotoxicity. […] These measurements were used to calculate EC50 values of table 2.

`N#Cc1ccc(Cc2ccc(C(=O)NCCc3c[nH]c4ccc(Cl)cc34)cc2)cc1` [Cpd031, N-(2-(5-chloro-1H-indol-3-yl)ethyl)-4-(4-cyanobenzyl)benzamide] showed a pEC50 of 7.80.
For `COc1cccc(Cc2cccc(C(=O)NCCc3c[nH]c4ccc(Cl)cc34)c2)c1F` [Cpd066, N-(2-(5-chloro-1H-indol-3-yl)ethyl)-3-(2-fluoro-3-methoxybenzyl)benzamide], the pEC50 was 6.41.
Compound `O=C(NCCc1c[nH]c2ccc(F)cc12)c1cccc(Cc2cccc(F)c2)c1` [Cpd082, N-(2-(5-fluoro-1H-indol-3-yl)ethyl)-3-(3-fluorobenzyl)benzamide] has a pEC50 of 6.95.
`O=C(NCCc1c[nH]c2ccc(Cl)cc12)c1cccc(CNCc2cccs2)c1` [Cpd022, N-(2-(5-chloro-1H-indol-3-yl)ethyl)-3-((thiophen-2-ylmethylamino)methyl)benzamide] was tested, and the pEC50 was 6.80.
For `CN(c1ccc(C(=O)NCCc2c[nH]c3ccc(Cl)cc23)cc1)c1cccc(F)c1` [Cpd104, N-(2-(5-chloro-1H-indol-3-yl)ethyl)-4-((3-fluorophenyl)(methyl)amino)benzamide], the pEC50 was 6.58.
With `O=C(NCCc1c[nH]c2ccc(Cl)cc12)c1ccc(Oc2ccccc2)cc1` [Cpd093, N-(2-(5-chloro-1H-indol-3-yl)ethyl)-4-phenoxybenzamide] the pEC50 was 6.53.
For `COc1cccc(Cc2ccc(C(=O)NCCc3c[nH]c4ccc(Cl)cc34)cc2)c1F` [Cpd068, N-(2-(5-chloro-1H-indol-3-yl)ethyl)-4-(2-fluoro-3-methoxybenzyl)benzamide], the pEC50 was 6.83.
`O=C(NCCc1c[nH]c2ccc(Cl)cc12)c1cccc(Cc2cc(F)cc(F)c2)c1` [Cpd065, N-(2-(5-chloro-1H-indol-3-yl)ethyl)-3-(3,5-difluorobenzyl)benzamide] showed a pEC50 of 6.76.
In the case of `N#Cc1cccc(Cc2ccc(C(=O)NCc3c[nH]c4ccc(Cl)cc34)cc2)c1` [Cpd072, N-((5-chloro-1H-indol-3-yl)methyl)-4-(3-cyanobenzyl)benzamide], the pEC50 was 6.88.
`O=C(NCCc1c[nH]c2ccc(Cl)cc12)c1ccc(CNCc2ccccc2)cc1` [Cpd019, 4-((benzylamino)methyl)-N-(2-(5-chloro-1H-indol-3-yl)ethyl)benzamide] was tested, and the pEC50 was 6.99.
`O=C(NCCc1c[nH]c2ccc(Cl)cc12)c1ccccc1Cc1ccccc1` [Cpd009, 2-benzyl-N-(2-(5-chloro-1H-indol-3-yl)ethyl)benzamide] showed a pEC50 of 6.62.
With `O=C(NCCc1c[nH]c2ccc(Cl)cc12)c1ccc(Cn2ccnc2)cc1` [Cpd012, 4-((1H-imidazol-1-yl)methyl)-N-(2-(5-chloro-1H-indol-3-yl)ethyl)benzamide] the pEC50 was 6.31.
For `O=C(NCCc1c[nH]c2ccc(Cl)cc12)c1cccc(Cc2cccs2)c1` [Cpd075, N-(2-(5-chloro-1H-indol-3-yl)ethyl)-3-(thiophen-2-ylmethyl)benzamide], the pEC50 was 7.52.
In the case of `COc1ccccc1Cc1ccc(C(=O)NCCc2c[nH]c3ccc(Cl)cc23)cc1` [Cpd029, N-(2-(5-chloro-1H-indol-3-yl)ethyl)-4-(2-methoxybenzyl)benzamide], the pEC50 was 7.08.
With `N#Cc1cccc(Cc2cccc(C(=O)NCCc3c[nH]c4ccc(Cl)cc34)c2)c1` [Cpd038, N-(2-(5-chloro-1H-indol-3-yl)ethyl)-3-(3-cyanobenzyl)benzamide] the pEC50 was 7.51.
`O=C(NCCc1c[nH]c2ccc(Cl)cc12)c1ccc(Cc2ccc(Cl)cc2)cc1` [Cpd045, N-(2-(5-chloro-1H-indol-3-yl)ethyl)-4-(4-chlorobenzyl)benzamide] gave a pEC50 of 7.66.
For `O=C(NCCc1c[nH]c2ccc(Cl)cc12)c1cccc(Cc2cccc(F)c2)n1` [Cpd117, N-(2-(5-chloro-1H-indol-3-yl)ethyl)-6-(3-fluorobenzyl)picolinamide], the pEC50 was 6.96.
Work on `O=C(NCCc1c[nH]c2ccc(Cl)cc12)c1ccc(Cc2cccc(C(F)(F)F)c2)cc1` [Cpd042, N-(2-(5-chloro-1H-indol-3-yl)ethyl)-4-(3-(trifluoromethyl)benzyl)benzamide] yielded a pEC50 of 7.51.
Compound `N#Cc1ccc(Cc2cccc(C(=O)NCCc3c[nH]c4ccc(Cl)cc34)c2)cc1` [Cpd037, N-(2-(5-chloro-1H-indol-3-yl)ethyl)-3-(4-cyanobenzyl)benzamide] has a pEC50 of 7.49.
`O=C(NCCc1c[nH]c2ccc(Cl)cc12)c1cccc(Cc2cccc(C(F)(F)F)c2)c1` [Cpd044, N-(2-(5-chloro-1H-indol-3-yl)ethyl)-3-(3-(trifluoromethyl)benzyl)benzamide] gave a pEC50 of 7.26.
For `O=C(NCCc1c[nH]c2ccc(Cl)cc12)c1cccc(Cc2ccco2)c1` [Cpd077, N-(2-(5-chloro-1H-indol-3-yl)ethyl)-3-(furan-2-ylmethyl)benzamide], the pEC50 was 7.77.
`O=C(NCc1c[nH]c2ccc(Cl)cc12)c1ccc(Cc2cccc(F)c2)cc1` [Cpd071, N-((5-chloro-1H-indol-3-yl)methyl)-4-(3-fluorobenzyl)benzamide] showed a pEC50 of 6.56.
In the case of `O=C(NCCc1c[nH]c2ccc(Cl)cc12)c1ccc(Cc2ccc(C(F)(F)F)cc2)cc1` [Cpd039, N-(2-(5-chloro-1H-indol-3-yl)ethyl)-4-(4-(trifluoromethyl)benzyl)benzamide], the pEC50 was 7.66.
For `O=C(NCCc1c[nH]c2ccc(Cl)cc12)c1ccc(Cc2ccccc2Cl)cc1` [Cpd047, N-(2-(5-chloro-1H-indol-3-yl)ethyl)-4-(2-chlorobenzyl)benzamide], the pEC50 was 7.19.
With `O=C(NCCc1c[nH]c2ccc(Cl)cc12)c1cccc(Cc2ccoc2)c1` [Cpd083, N-(2-(5-chloro-1H-indol-3-yl)ethyl)-3-(furan-3-ylmethyl)benzamide] the pEC50 was 7.25.
For `CN(c1ccccc1)c1ccc(C(=O)NCCc2c[nH]c3ccc(Cl)cc23)cc1` [Cpd096, N-(2-(5-chloro-1H-indol-3-yl)ethyl)-4-(methyl(phenyl)amino)benzamide], the pEC50 was 6.33.
In the case of `O=C(NCCc1c[nH]c2ccc(-c3ccccc3)cc12)c1ccc(Cc2cccc(F)c2)cc1` [Cpd111, 4-(3-fluorobenzyl)-N-(2-(5-phenyl-1H-indol-3-yl)ethyl)benzamide], the pEC50 was 6.27.
`O=C(NCCc1c[nH]c2ncc(Cl)cc12)c1ccc(Cc2cccc(F)c2)cc1` [Cpd101, N-(2-(5-chloro-1H-pyrrolo[2,3-b]pyridin-3-yl)ethyl)-4-(3-fluorobenzyl)benzamide] gave a pEC50 of 5.98.
Compound `COc1cccc(Cc2cccc(C(=O)NCCc3c[nH]c4ccc(Cl)cc34)c2)c1` [Cpd058, N-(2-(5-chloro-1H-indol-3-yl)ethyl)-3-(3-methoxybenzyl)benzamide] has a pEC50 of 6.90.
With `O=C(NCCc1c[nH]c2ccc(Cl)cc12)c1ccc(Cc2cccc(F)c2)c(F)c1` [Cpd100, N-(2-(5-chloro-1H-indol-3-yl)ethyl)-3-fluoro-4-(3-fluorobenzyl)benzamide] the pEC50 was 7.36.
In the case of `O=C(NCCc1c[nH]c2ccc(Cl)cc12)c1cccc(Nc2ccccc2)c1` [Cpd094, N-(2-(5-chloro-1H-indol-3-yl)ethyl)-3-(phenylamino)benzamide], the pEC50 was 6.79.
In the case of `Cc1cccc(Cc2cccc(C(=O)NCCc3c[nH]c4ccc(Cl)cc34)c2)c1` [Cpd035, N-(2-(5-chloro-1H-indol-3-yl)ethyl)-3-(3-methylbenzyl)benzamide], the pEC50 was 7.22.
`O=C(NCCc1c[nH]c2ccc(Cl)cc12)c1ccc(Cn2cccn2)cc1` [Cpd011, 4-((1H-pyrazol-1-yl)methyl)-N-(2-(5-chloro-1H-indol-3-yl)ethyl)benzamide] showed a pEC50 of 6.76.
With `O=C(NCCc1c[nH]c2ccc(Cl)cc12)c1ccc(Nc2cccc(F)c2)cc1` [Cpd106, N-(2-(5-chloro-1H-indol-3-yl)ethyl)-4-(3-fluorophenylamino)benzamide] the pEC50 was 7.09.
